Laboratory results: patent US4521406A, “Antitumor agent” (priority 1980, dated 1985)
Entries after “also recorded” stand apart in the source; their conditions may differ.

Columns and labels:
[1] = tested on: Glioblastoma cancer cells; assay: Glioblastoma transplanted into the brain of rats, survival (Experimental Example 6); conditions: 5-fluorocytosine 4 ml (10 mg/ml) i.p. every other day; 0.02 ml cytosinedeaminase (1 IU/ml) or PBS to transplantation site
[2] = tested on: human Glioblastoma; assay: Morphological changes of human Glioblastoma (Experimental Example 4); assay type: cell-based; conditions: 50 μg/ml
[3] = tested on: HeLa cells; assay: Growth inhibition of HeLa cells (Experimental Example 1); conditions: for number of cells: drug used alone (control)
[4] = tested on: tumor; assay: General statements on antitumor activity; conditions: applicant's summary of Experimental Examples 1 to 6
[5] = tested on: tumor; conditions: general statement; cited from earlier work
[6] = general statement; cited from earlier work

Structure (SMILES) | Average days of survival [1] | morphological changes [2] | number of cells ([3]; 2 days elapsed, 24 h contact) | number of cells ([3]; 4 days elapsed, 24 h contact) | number of cells ([3]; 6 days elapsed, 24 h contact) | antitumor activity when used singly ([3]; HeLa cells, used alone, result in words) | number of cells ([3]; day 0, before 24 h treatment) | antitumor activity of the individual agents / of combined use [4] | antitumor activity [5] | toxicity [6]
Nc1nc(=O)[nH]cc1F [5-fluorocytosine] | 32 days | morphological changes such as the disintegration of the cytoplasm and the deformation of the nucleus were evidently noted | 73 ×10^-4 cells/ml | 120 ×10^-4 cells/ml | 205 ×10^-4 cells/ml | do not have any antitumor activity | 29 ×10^-4 cells/ml | neither 5-fluorocytosine nor cytosinedeaminase has antitumor activity | no antitumor activity | 
O=c1[nH]cc(F)c(=O)[nH]1 [5-fluorouracil] |  |  |  |  |  |  |  |  | intense antitumor activity; also recorded: effective against solid tumors | intense toxicity in oral and intravenous administrations
O=c1[nH]c(=O)n(C2CCCO2)cc1F (stereo not drawn) [tetrahydrofuryl 5-fluorouracil] |  |  |  |  |  |  |  |  |  | low toxicity
